{
  "source": "paper PMC12491243",
  "about": "“Rational design of indoleamine 2,3-dioxygenase 1 (IDO1) inhibitors featuring 1,2,3-triazole derivatives with enhanced anti-inflammatory and analgesic efficacy” (Frontiers in Pharmacology, 2025)",
  "assay_type_in_all_cases": "in vivo",
  "key": {"TNF-α": {"tested_on": "TNF-α", "assay": "ELISA of TNF-α in inflamed paw, spinal cord and serum of CFA mice", "conditions": "ipsilateral L4–L6 spinal cord and serum, 72 h after CFA", "text": "To determine whether the analgesic effects of Compound 14e are associated with reduced local and systemic inflammation, we measured the levels of inflammatory factors in the inflamed paw tissue, ipsilateral L4–L6 spinal cord, and peripheral blood. The results indicated a significant increase in the protein levels of TNF-α and IL-1β in the inflamed paw, spinal cord, and serum of mice in the CFA group compared to the vehicle group.\nFIGURE 6 Compound 14e reduces TNF-α and IL-1β in the inflamed hindpaw skin, spinal cord and peripheral blood 72 h after CFA-induced inflammation. (A,D) Expression levels of TNF-α and IL-1β in the inflamed skin tissue. (B,E) Expression levels of TNF-α and IL-1β in ipsilateral L4–6 spinal cord. […]\nUnder anesthesia with 1% pentobarbital sodium, serum was obtained from the mice orbits, after coagulation at room temperature for 2 h, the sample was then centrifuged at 1,000 × g for 20 min at 4 °C, with the supernatant collected. […] The protein concentrations were determined using a bicinchoninic acid (BCA) kit (Pierce Biotechnology Inc.). The following inflammatory factors were measured using Mouse TNF-α ELISA kit (EM0183) and IL-1β ELISA kit (EM0109) obtained from Wuhan Fine Biotechnology Company, according to the product protocols. The O.D. absorbance at 450 nm was quantified in a ultramicroplate spectrophotometer (BioTek Epoch)."}, "Iba1-positive microglia": {"tested_on": "Iba1-positive microglia", "assay": "Immunofluorescence of Iba1-positive microglia in spinal dorsal horn of CFA mice", "conditions": "3 days after CFA, 30 mg/kg i.p.", "description": "Given the critical role of microglial activation in inflammation-mediated responses, we investigated whether Compound 14e could modulate microglial activity in the spinal dorsal horn of mice following Complete Freund’s Adjuvant (CFA) injection. First, we assessed the expression of the microglial marker Iba1 in the L4–L6 segments of the spinal cord.\nFIGURE 4 Compound 14e prevented the upregulation of Iba1 in CFA mice.\nThe mice were anesthetized with isoflurane, and 40 μL of CFA (Sigma-Aldrich) was intraplantarly injected into the mid-plantar surface of their left hind paws. As for the control group, an equivalent volume of normal saline was injected ([Jiang et al., 2018]).\nThe compound 14e were diluted with 10% DMSO, and were intraperitoneally injected with 30 mg/kg into the mice once a day for 3 days after CFA. The dosage of compound 14e was determined based on our preliminary experiments.\nUnder anesthesia with 1% pentobarbital sodium (0.1 g/kg, i. p.), mice were perfused intracardially with warm normal saline followed by cold 4% paraformaldehyde (PFA) in 0.1 M phosphate buffer (PB). The whole spinal cord in L4 – L5 segments was rapidly dissected and post-fixed in 4% PFA for 6 h, then cryoprotected by incubation of PB with 20% and 30% sucrose solutions at 4 °C in turn. […] Images were taken with a fluorescence microscope (BX53, Olympus)."}, "[1]": {"tested_on": "CFA-induced inflammatory pain model", "assay": "CFA-induced mechanical allodynia, von Frey paw withdrawal frequency", "conditions": "CFA mice, 30 mg/kg i.p., 0.07 g and 0.4 g von Frey filaments, ipsilateral side, 12 to 72 h post-CFA", "description": "To evaluate the analgesic effects of Compound 14e in vivo, we established an inflammatory pain model using intraplantar injection of CFA. Compound 14e (30 mg/kg) was administered intraperitoneally at 6 h, with subsequent doses at 48 and 72 h after CFA injection. Behavioral assessments, including von Frey testing for mechanical allodynia and heat stimuli for thermal hyperalgesia, were conducted on the injected hind paw at baseline (BL), as well as at 6, 12, 18, 24, 48 and 72 h post-CFA injection. Additionally, flinching and guarding behaviors, indicators of spontaneous pain, were evaluated 72 h after CFA injection. […] (A,B) Evaluation of CFA-induced mechanical allodynia as assessed by withdrawal frequency to 0.07 g (A) and 0.4 g (B) von Frey filaments in mice repetitive treated with 10% DMSO or compound 14e. […] The dosage of compound 14e was determined based on our preliminary experiments. Mechanical hypersensitivity was assessed by measuring paw withdrawal frequency (PWF) as described previously in our reports ([Ma et al., 2021]; [Pan et al., 2021]). The PWF in response to mechanical stimulus was determined using two calibrated von Frey filaments (0.07 and 0.4 g, North Coast Medical Inc., Gilroy, United States). […] The PWF was calculated based on the number of positive responses from the 10 applications ([number of paw withdrawals/10 trials] × 100 = % response frequency)."}},
  "data": [
    {"compound": "O=C1COc2ccc(NC(=O)c3cccc(-c4cn(Cc5c(F)cccc5Cl)nn4)c3)cc2N1", "note": "[Compound 14e]", "values": [
      {"measurement": "CFA-induced levels of TNF-α", "setting": "TNF-α", "value": "significantly decreased"},
      {"measurement": "morphological changes and accumulation of Iba1-positive microglia (immunofluorescence)", "setting": "Iba1-positive microglia", "value": "notably alleviated"},
      {"measurement": "mechanical allodynia, paw withdrawal frequency (PWF)", "setting": "[1]", "value": "significantly alleviated"}
    ]}
  ]
}
